Assay results reported in patent publication US20100029617A1, “1,4,5,6,7,8-HEXAHYDRO-1,2,5-TRIAZA-AZULENE DERIVATIVES AS OREXIN RECEPTOR ANTAGONISTS” (Actelion Pharmaceuticals Ltd., priority 2006, published 2010).
Read-outs that look alike come from different tables or passages of the source.

What was measured:
human orexin-1 receptor = molecular target: T1, human orexin-1 receptor (Homo sapiens, UniProt O43613); test: Intracellular calcium measurements (FLIPR), orexin receptor antagonistic activity; assay type: cell-based; conditions: CHO cells expressing human orexin-1 receptor; agonist 10 nM human orexin-A; fluo-3 calcium signal; read-out: IC50 OX1
T1 construct: expressed in transfected cells; host or cells: CHO cells (G418 selection)
T1 sequence (O43613 1-425): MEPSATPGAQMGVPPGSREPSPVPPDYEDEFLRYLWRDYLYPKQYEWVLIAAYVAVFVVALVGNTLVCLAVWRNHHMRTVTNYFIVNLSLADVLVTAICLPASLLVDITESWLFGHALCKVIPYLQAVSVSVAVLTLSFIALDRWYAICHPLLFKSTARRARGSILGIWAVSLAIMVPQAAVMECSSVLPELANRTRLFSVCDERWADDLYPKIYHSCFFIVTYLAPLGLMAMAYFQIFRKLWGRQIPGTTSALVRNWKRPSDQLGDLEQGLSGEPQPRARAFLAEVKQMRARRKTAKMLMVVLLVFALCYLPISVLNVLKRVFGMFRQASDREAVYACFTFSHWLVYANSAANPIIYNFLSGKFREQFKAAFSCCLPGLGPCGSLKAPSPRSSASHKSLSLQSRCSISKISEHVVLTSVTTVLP
Description: (§1) The orexin receptor antagonistic activity of the compounds of formula (II) is determined in accordance with the following experimental method.
(§2) Intracellular Calcium Measurements:
(§3) Chinese hamster ovary (CHO) cells expressing the human orexin-1 receptor and the human orexin-2 receptor, respectively, are grown in culture medium (Ham F-12 with L-Glutamine) containing 300 μg/ml G418, 100 U/ml penicillin, 100 μg/ml streptomycin and 10% inactivated fetal calf serum (FCS). The cells are seeded at 80'000 cells/well into 96-well black clear bottom sterile plates (Costar) which have been precoated with 1% gelatine in Hanks' Balanced Salt Solution (HBSS). All reagents are from Gibco BRL. The seeded plates are incubated overnight at 37° C. in 5% CO2.
(§4) Human orexin-A as an agonist is prepared as 1 mM stock solution in methanol:water (1:1), diluted in HBSS containing 0.1% bovine serum albumin (BSA) and 2 mM HEPES for use in the assay at a final concentration of 10 nM.
(§5) Antagonists are prepared as 10 mM stock solution in DMSO, then diluted in 96-well plates, first in DMSO, then in HBSS containing 0.1% bovine serum albumin (BSA) and 2 mM HEPES.
(§6) On the day of the assay, 100 μl of loading medium (HBSS containing 1% FCS, 2 mM HEPES, 5 mM probenecid (Sigma) and 3 μM of the fluorescent calcium indicator fluo-3 AM (1 mM stock solution in DMSO with 10% pluronic acid) (Molecular Probes) is added to each well.
(§7) The 96-well plates are incubated for 60 min at 37° C. in 5% CO2. The loading solution is then aspirated and cells are washed 3 times with 200 μl HBSS containing 2.5 mM probenecid, 0.1% BSA, 2 mM HEPES. 100 μl of that same buffer is left in each well.
(§8) Within the Fluorescent Imaging Plate Reader (FLIPR, Molecular Devices), antagonists are added to the plate in a volume of 50 μl, incubated for 20 min and finally 100 μl of agonist is added. Fluorescence is measured for each well at 1 second intervals, and the height of each fluorescence peak is compared to the height of the fluorescence peak induced by 10 nM orexin-A with buffer in place of antagonist.

human orexin-2 receptor = molecular target: T2, human orexin-2 receptor (Homo sapiens, UniProt O43614); test: as above; assay type: cell-based; conditions: read-out: IC50 OX2
T2 construct: expressed in transfected cells; host or cells: CHO cells (G418 selection)
T2 sequence (O43614 1-444): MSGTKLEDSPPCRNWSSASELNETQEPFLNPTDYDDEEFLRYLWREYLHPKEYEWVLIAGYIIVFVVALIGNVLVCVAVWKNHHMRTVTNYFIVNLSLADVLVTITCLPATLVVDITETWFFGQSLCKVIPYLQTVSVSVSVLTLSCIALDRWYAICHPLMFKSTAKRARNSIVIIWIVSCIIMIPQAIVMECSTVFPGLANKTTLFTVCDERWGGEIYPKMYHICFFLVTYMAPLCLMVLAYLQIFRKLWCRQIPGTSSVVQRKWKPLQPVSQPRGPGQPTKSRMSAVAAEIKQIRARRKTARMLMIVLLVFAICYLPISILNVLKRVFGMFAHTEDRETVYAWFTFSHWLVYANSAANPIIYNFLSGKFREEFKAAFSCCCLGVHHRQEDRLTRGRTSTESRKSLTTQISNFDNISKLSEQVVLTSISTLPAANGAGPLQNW
Description: as §1, §2, §3, §4, §5, §6, §7, §8

[1] = CHO cells expressing human orexin-2 receptor, agonist 10 nM human orexin-A, fluo-3 calcium signal

Structure (SMILES)	IC50 (human orexin-1 receptor) [nM]	IC50 (human orexin-2 receptor; [1]) [nM]	IC50 (human orexin-2 receptor) [nM]
CCn1nc(C)c2c1CCCN([C@@H](C(=O)NC)c1ccccc1)[C@H]2CCc1cc(F)c(C(F)(F)F)c(F)c1 [Example 1 (4S;2′R), (R)-2′-{(S)-4-[2-(3,5-difluoro-4-trifluoromethyl-phenyl)-ethyl]-1-ethyl-3-methyl-4,6,7,8-tetrahydro-1H-1,2,5-triaza-azulen-5-yl}-N-methyl-2′-phenyl-acetamide]	22	12	–
CCn1nc(C)c2c1CCCN([C@@H](C(=O)NC)c1ccccc1)[C@H]2CCc1ccc(C)c(C)c1 [Example 2 (4S;2′R), (R)-2′-{(S)-4-[2-(3,4-dimethyl-phenyl)-ethyl]-1-ethyl-3-methyl-4,6,7,8-tetrahydro-1H-1,2,5-triaza-azulen-5-yl}-N-methyl-2′-phenyl-acetamide]	36	6	–
CCn1nc(C)c2c1CCCN([C@@H](C(=O)NC)c1ccccc1)[C@H]2CCc1ccc(C(F)(F)F)cc1F [Example 3 (4S;2′R), (R)-2′-{1-ethyl-(S)-4-[2-(2-fluoro-4-trifluoromethyl-phenyl)-ethyl]-3-methyl-4,6,7,8-tetrahydro-1H-1,2,5-triaza-azulen-5-yl}-N-methyl-2′-phenyl-acetamide]	138	18	–
CCn1nc(C)c2c1CCCN([C@@H](C(=O)NC)c1ccccc1)[C@H]2CCc1cc(F)c(C)c(F)c1 [Example 4 (4S;2′R), (R)-2′-{(S)-4-[2-(3,5-difluoro-4-methyl-phenyl)-ethyl]-1-ethyl-3-methyl-4,6,7,8-tetrahydro-1H-1,2,5-triaza-azulen-5-yl}-N-methyl-2′-phenyl-acetamide]	26	–	6
